Values of other authors as cited in patent US20140113883A1, “Therapeutic micro nutrient composition for lipolysis and sclerosis” (priority 2008, published 2014).

Test system: red blood cells

Lysolecithin
hemolytic properties: strong hemolytic properties
